In data set [1] the target is T1, tyrosine-hydroxylase (Rattus norvegicus, UniProt P04177).
T1 construct: on rat adrenal homogenate; from tissue; host or cells: rat adrenal homogenate
Briefly: In vitro tyrosine-hydroxylase inhibiting activity (TH) on rat adrenal homogenate. In kind it is biochemical. The settings on record: read-out: Enzyme inhibiting activity, TH; for inhibition at 100 µM: 10^-4 mole/liter; for inhibition at 10 µM: 10^-5 mole/liter. The procedure:
In vitro tyrosine-hydroxylase inhibiting activity (TH inhibiting activity) of the new compounds according to the invention was tested by the method of Nagatsu [Anal. Biochem., 9, 122 (1964)] on rat adrenal homogenate. Radioactive tyrosine was purified by the method elaborated by Ikeda [J. Biol. Chem., 241, 4452 (1966)]. TH activity of the rat adrenal homogenate amounted to […] nmoles/mg protein/60 min.
(§1) Inhibiting effect of several compounds encompassed by the formula I in comparison with some known compounds is listed in the following Table I.

For data set [2], the target named is T2, dopamine-β-hydroxylase (Bos taurus, UniProt P15101).
T2 construct: from tissue; host or cells: bovine adrenal (gland) preparations
T2 sequence (P15101 1-610): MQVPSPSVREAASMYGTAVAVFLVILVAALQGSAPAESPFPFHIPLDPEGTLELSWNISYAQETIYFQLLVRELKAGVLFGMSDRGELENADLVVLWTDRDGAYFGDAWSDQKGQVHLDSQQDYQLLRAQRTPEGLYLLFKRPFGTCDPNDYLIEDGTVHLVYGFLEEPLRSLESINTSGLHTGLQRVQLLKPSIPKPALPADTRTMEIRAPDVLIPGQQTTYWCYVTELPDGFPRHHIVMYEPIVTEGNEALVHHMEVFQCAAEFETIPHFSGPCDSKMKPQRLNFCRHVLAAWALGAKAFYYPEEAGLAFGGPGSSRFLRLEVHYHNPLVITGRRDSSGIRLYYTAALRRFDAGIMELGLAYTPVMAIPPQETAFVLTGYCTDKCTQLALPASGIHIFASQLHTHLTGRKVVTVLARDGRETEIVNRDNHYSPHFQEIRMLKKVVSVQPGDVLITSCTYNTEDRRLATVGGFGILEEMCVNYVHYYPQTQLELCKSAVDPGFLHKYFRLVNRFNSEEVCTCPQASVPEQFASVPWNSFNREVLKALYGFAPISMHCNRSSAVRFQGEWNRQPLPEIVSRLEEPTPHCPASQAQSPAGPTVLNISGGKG
The data set is described as follows: Dopamine-β-hydroxylase inhibiting activity (DBH) on bovine adrenal (gland) preparations. In kind it is biochemical. The settings on record: read-out: Enzyme inhibiting activity, DBH; for inhibition at 100 µM: 10^-4 mole/liter; for inhibition at 10 µM: 10^-5 mole/liter. The method, then: Dopamine-β-hydroxylase inhibiting activity (DBH inhibiting activity) of the compounds according to the invention was tested on bovine adrenal (gland) preparations by a modified version of Nagatsu's method [B.B. Acta, 139 319 (1967)].
as §1

The subject of data set [3] is spontaneous hypertensive rats (Wistar-Okamoto rats). Briefly: Blood pressure lowering activity, systolic blood pressure of waking spontaneous hypertensive rats, oral. In kind it is in vivo, rat. The settings on record: for change in vivo at 2.5 mg/kg / change in vivo at 50 mg/kg / change in vivo at 20 mg/kg: Rattus norvegicus, oral, read-out: Reduction in blood pressure; for significant blood pressure lowering activity: ≥-15%. The method, then: Blood pressure lowering activity of the new compounds according to the invention was tested on spontaneous hypertensive rats (Wistar-Okamoto rats) following the method described in Arzn. Forsch., 6, 222 (1956). Systolic blood pressure of waking animals was measured in arteria caudalis 4, 24, 48 and 72 hours after the oral administration of the test compounds.

Data set [4] can be described thus: Acute toxicity (LD50) on mice. The settings on record: mouse, in vivo, po.

Where two headings read alike, the source gives them in different places. Where only a bound is given, the exact number is not on record here.

T1 sequence (P04177 whole entry): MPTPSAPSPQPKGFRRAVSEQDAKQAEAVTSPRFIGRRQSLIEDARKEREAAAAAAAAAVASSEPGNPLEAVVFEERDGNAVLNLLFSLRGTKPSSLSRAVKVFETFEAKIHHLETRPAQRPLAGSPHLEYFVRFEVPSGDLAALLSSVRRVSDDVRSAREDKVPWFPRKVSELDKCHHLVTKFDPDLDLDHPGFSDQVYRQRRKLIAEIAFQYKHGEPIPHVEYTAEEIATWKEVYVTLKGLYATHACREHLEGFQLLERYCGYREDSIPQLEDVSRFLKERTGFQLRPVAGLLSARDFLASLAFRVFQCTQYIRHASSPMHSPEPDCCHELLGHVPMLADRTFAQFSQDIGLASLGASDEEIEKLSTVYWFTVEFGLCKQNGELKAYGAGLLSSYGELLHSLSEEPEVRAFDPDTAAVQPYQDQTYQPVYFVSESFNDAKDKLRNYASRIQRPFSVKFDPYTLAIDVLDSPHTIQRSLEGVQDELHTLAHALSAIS

Turning to `CC(N)(Cc1ccc(O)cc1)C(=O)O` (racemic) [D,L-α-methyl-4-hydroxy-phenyl-alanine, reference compound], in data set [1], the inhibition at 100 µM was 100% and the inhibition at 10 µM amounted to 60%. In data set [2], the inhibition at 100 µM is 0% and the inhibition at 10 µM is 0%.
With `CC12CCC(CC1=NNc1cccnn1)C2(C)C` (stereo not drawn) [Example 3, 1,7,7-Trimethy-2-bicyclo-[2,2,1]heptylidene-3-pyridazinylhydrazone], in data set [1], the inhibition at 100 µM is 100% and the inhibition at 10 µM was determined as 75%. In addition, in data set [2], the inhibition at 100 µM amounted to 80% and the inhibition at 10 µM turned out to be 0%.
As for `c1cc(N2CCOCC2)nnc1NN=C1CCCCC1` [Example 10, Cyclohexylidene-3-morpholino-6-pyridazinylhydrazone], the change in vivo at 2.5 mg/kg in data set [3] (4 hours) was -41%; in data set [3] (24 hours) it was -26%. The “significant blood pressure lowering activity” value in data set [3] is given as at least -15%. In data set [4], this compound registered an LD50 below 200 mg/kg.
For the compound `c1cnnc(NN=C2CCCCC2)c1` [Example 12, Cyclohexylidene-3-pyridazinylhydrazone], in data set [1], the inhibition at 100 µM turned out to be 100% and the inhibition at 10 µM came out at 85%. Moreover, in data set [2], the inhibition at 100 µM was found to be 84% and the inhibition at 10 µM was 10%.
Taken in the same sequence, the figures for `CC(=NNc1cccnn1)c1ccccc1` [Example 13, 1-Phenyl-1-ethylidene-3-pyridazinylhydrazone] were 95%, 40%, 90% and 10%.
As to `CC1CCCCC1=NNc1ccc(Cl)nn1` (stereo not drawn) [Example 15, 2-Methyl-1-cyclohexylidene-3-chloro-6-pyridazinylhydrazone], in data set [1], the inhibition at 100 µM was determined as 100% and the inhibition at 10 µM was found to be 50%. In data set [2], the inhibition at 100 µM came out at 88% and the inhibition at 10 µM was found to be 32%.
The like results for `O=C(O)C1CCCCC1=NNc1ccc(Cl)nn1` (stereo not drawn) [Example 18, 2-Carboxy-1-cyclohexylidene-3-chloro-6-pyridazinylhydrazone] were, in that order, 100%, 50%, 88% and 32%.
On to `CCOC(=O)CC(C)=NNc1cccnn1` [Example 22, 3-(Ethoxycarbonyl)-2-propylidene-(3-pyridazinyl)hydrazone], for which the inhibition at 100 µM in data set [1] and in data set [2] was 100% in each case. Also, the inhibition at 10 µM in data set [1] is 50%; in data set [2], 56%.
With `COC(=O)CCC(C)=NNc1ccc(Cl)nn1` [Example 23], in data set [3] (4 hours), the change in vivo at 50 mg/kg is -21%. Further, the change in vivo at 50 mg/kg in data set [3] (24 hours) was -8%. Also, the “significant blood pressure lowering activity” value in data set [3] is given as at least -15%. Besides, in data set [2], the inhibition at 100 µM was determined as 70% and the inhibition at 10 µM came out at 50%. The compound also gave an LD50 in data set [4] of 200 mg/kg.
In the case of `COC(=O)CC(C)=NNc1ccc(Cl)nn1` [Example 24, 3-(Methoxycarbonyl)-2-propylidene-3-chloro-6-pyridazinylhydrazone], in data set [2], the inhibition at 100 µM turned out to be 100% and the inhibition at 10 µM is 50%.
On to `CCOC(=O)C(C)C(C)=NNc1ccc(Cl)nn1` (stereo not drawn) [Example 25, 3-(Ethoxycarbonyl)-2-butylidene-3-chloro-6-pyridazinylhydrazone], for which the figures for the change in vivo at 50 mg/kg in data set [3] (4 hours) and in data set [3] (24 hours) were -33% and -17%, respectively. Also, the “significant blood pressure lowering activity” value in data set [3] was at least -15%. In addition, the LD50 in data set [4] came out at 200 mg/kg.
The like results for `CCOC(=O)CCCC(C)=NNc1ccc(Cl)nn1` [Example 26] were, in that order, -38%, -29%, at least -15% and 200 mg/kg.
As to `CCOC(=O)CC(CC)=NNc1ccc(Cl)nn1` [Example 27, 1-(Ethoxycarbonyl)-2-butylidene-3-chloro-6-pyridazinylhydrazone], in data set [3], the “significant blood pressure lowering activity” value is at least -15%.
Turning to `CCOC(=O)CC(=NNc1ccc(Cl)nn1)c1ccccc1` [Example 34, 1-(Ethoxycarbonyl)-2-phenyl-2-ethylidene-3-chloro-6-pyridazinylhydrazone], in data set [2], the inhibition at 100 µM was found to be 100% and the inhibition at 10 µM came out at 40%.
For the compound `CCOC(=O)CC(=NNc1ccc(Cl)nn1)c1cccnc1` [Example 37, 1-(Ethoxycarbonyl)-2-(3-pyridyl)-2-ethylidene-3-chloro-6-pyridazinylhydrazone], in data set [2], the inhibition at 100 µM was 100% and the inhibition at 10 µM worked out at 41%.
In the case of `CC(CCC(=O)O)=NNc1ccc(Cl)nn1` [Example 38, 4-Carboxy-2-butylidene-3-chloro-6-pyridazinylhydrazone], the figures for the change in vivo at 50 mg/kg in data set [3] (4 hours) and in data set [3] (24 hours) were -34% and -27%, respectively. For the same compound, the “significant blood pressure lowering activity” value in data set [3] was at least -15%. The same compound returned an LD50 in data set [4] of 200 mg/kg.
In the case of `CC(CCC(=O)OC(C)(C)C)=NNc1ccc(Cl)nn1` [Example 43, 4-(tert.-Butoxycarbonyl)-2-butylidene-3-chloro-6-pyridazinylhydrazone], the change in vivo at 50 mg/kg in data set [3] (4 hours) was -32%; in data set [3] (24 hours) it was -18%. Moreover, in data set [3], the “significant blood pressure lowering activity” value was at least -15%. The compound further came in with an LD50 in data set [4] of 200 mg/kg.
Regarding `CC(CCC(=O)O)=NNc1ccc(N2CCOCC2)nn1` [Example 48, 4-Carboxy-2-butylidene-3-morpholino-6-pyridazinylhydrazone], the results for the change in vivo at 2.5 mg/kg in data set [3] (4 hours) and in data set [3] (24 hours) were -33% and -8%, respectively. Also, in data set [3], the “significant blood pressure lowering activity” value is recorded as at least -15%. In data set [4], this compound came in with an LD50 of 200 mg/kg.
As for `CCOC(=O)CCCCC(C)=NNc1ccc(Cl)nn1` [Example 49, 6-(Ethoxycarbonyl)-2-hexylidene-3-chloro-6-pyridazinylhydrazone], the change in vivo at 20 mg/kg in data set [3] (4 hours) is -22%. Moreover, in data set [3] (24 hours), the change in vivo at 20 mg/kg was -13%. In data set [3], the “significant blood pressure lowering activity” value is given as at least -15%. Moreover, in data set [2], the inhibition at 100 µM turned out to be 66% and the inhibition at 10 µM came out at 50%. The same compound yielded an LD50 in data set [4] below 200 mg/kg.
On to `CC(CCCC(=O)O)=NNc1ccc(Cl)nn1` [Example 50, 5-Carboxy-2-pentylidene-3-chloro-6-pyridazinylhydrazone], for which the change in vivo at 20 mg/kg in data set [3] (4 hours) was -28%. Besides, the change in vivo at 20 mg/kg in data set [3] (24 hours) was -30%. Besides, the “significant blood pressure lowering activity” value in data set [3] is reported as at least -15%. For the same compound, in data set [2], the inhibition at 100 µM was determined as 73% and the inhibition at 10 µM is 0%. This compound also yielded an LD50 in data set [4] of 200 mg/kg.
In the case of `CC(CC(=O)OC(C)(C)C)=NNc1ccc(C)nn1` [Example 53, 3-(tert.-Butoxycarbonyl)-2-propylidene-(3-methyl-6-pyridazinyl) hydrazone], the change in vivo at 50 mg/kg was -32% in data set [3] (4 hours) and -27% in data set [3] (24 hours). Also, the “significant blood pressure lowering activity” value in data set [3] is recorded as at least -15%. This compound registered an LD50 in data set [4] of 200 mg/kg.
Regarding `CC(CC(=O)OC(C)(C)C)=NNc1ccc(C(N)=O)nn1` [Example 56, 3-(tert.-Butoxycarbonyl)-2-propylidene-(3-carbamoyl-6-pyridazinyl) hydrazine], the results for the change in vivo at 20 mg/kg in data set [3] (4 hours) and in data set [3] (24 hours) were -20% and 0%, respectively. Besides, the “significant blood pressure lowering activity” value in data set [3] is listed as at least -15%. The compound further displayed an LD50 in data set [4] above 200 mg/kg.
Regarding `CC(CCCC(=O)O)=NNc1ccc(N2CCOCC2)nn1` [Example 57, 5-Carboxy-2-pentylidene-3-morpholino-6-pyridazinylhydrazone], the change in vivo at 2.5 mg/kg in data set [3] (4 hours) is -28%; in data set [3] (24 hours), -16%. Besides, the “significant blood pressure lowering activity” value in data set [3] was at least -15%. This compound gave an LD50 in data set [4] of 200 mg/kg.
Regarding `CCCCc1ccc(C(=O)O)nc1` [Fusaric acid, reference compound], in data set [1], the inhibition at 100 µM worked out at 0% and the inhibition at 10 µM turned out to be 0%. Further, in data set [2], the inhibition at 100 µM was 100% and the inhibition at 10 µM is 100%.
